16 compounds from ChEMBL document CHEMBL1141026, “Synthesis, in vitro antitrypanosomal and antibacterial activity of phenoxy, phenylthio or benzyloxy substituted quinolones” (Bioorg Med Chem Lett, 2009) can be followed below.

As usually defined, the IC50 is the concentration that gives 50% inhibition. High values mean a need for much substance, low ones inhibition by little substance. In general, MIC refers to the lowest concentration found to suppress growth.

One experiment has as its system Trypanosoma cruzi. As to the kind of experiment: Antitrypanosomal activity against trypomastigotes of Trypanosoma cruzi Tulahuen C2C4 containing lacZ gene in rat L6 cells after 4 days. The conditions noted are these: L6, 96 h. Format: functional, organism-based.
A further experiment relates to Shigella boydii. As to the kind of experiment: Antibacterial activity against Shigella boydii after 24 hrs by agar dilution method. Format: functional. For orientation: Agar dilution tests growth on a series of plates holding different concentrations.
For another experiment, the system named is Shigella flexneri. As to the kind of experiment: Antibacterial activity against Shigella flexneri after 24 hrs by agar dilution method. The format is functional.
The next experiment relates to Proteus mirabilis. As to the kind of experiment: Antibacterial activity against Proteus mirabilis after 24 hrs by agar dilution method. Format: functional.
In a further experiment the test system is Proteus vulgaris. As to the kind of experiment: Antibacterial activity against Proteus vulgaris after 24 hrs by agar dilution method. The format is functional.
For a further experiment, the system named is Pseudomonas aeruginosa. The experiment in a line: Antibacterial activity against Pseudomonas aeruginosa after 24 hrs by agar dilution method. The format is functional.
In another experiment the test system is Morganella morganii. The experiment in a line: Antibacterial activity against Morganella morganii after 24 hrs by agar dilution method. Format: functional.
The subject of the next experiment is Klebsiella pneumoniae. As to the kind of experiment: Antibacterial activity against Klebsiella pneumoniae after 24 hrs by agar dilution method. The format is functional.
Experiment [1] relates to Salmonella enterica subsp. enterica. As to the kind of experiment: Antibacterial activity against Salmonella enteritidis after 24 hrs by agar dilution method. The format is functional, Salmonella enterica subsp. enterica serovar Enteritidis.
In a further experiment the test system is Salmonella typhimurium. As to the kind of experiment: Antibacterial activity against Salmonella Typhimurium after 24 hrs by agar dilution method. Format: functional, Salmonella enterica subsp. enterica serovar Typhimurium. The conditions noted are these: Salmonella enterica.
The next experiment concerns Citrobacter freundii. As to the kind of experiment: Antibacterial activity against Citrobacter freundii after 24 hrs by agar dilution method. Format: functional.
For another experiment, the system named is Aeromonas hydrophila. As to the kind of experiment: Antibacterial activity against Aeromonas hydrophila after 24 hrs by agar dilution method. The format is functional.
A further experiment has as its system Serratia marcescens. The experiment in a line: Antibacterial activity against Serratia marcescens after 24 hrs by agar dilution method. The format is functional.
In another experiment the test system is Staphylococcus aureus. The experiment in a line: Antibacterial activity against Staphylococcus aureus after 24 hrs by agar dilution method. Format: functional.
A further experiment deals with Streptococcus pneumoniae. As to the kind of experiment: Antibacterial activity against Streptococcus pneumoniae after 24 hrs by agar dilution method. Format: functional.
A further experiment relates to Staphylococcus. As to the kind of experiment: Antibacterial activity against Staphylococcus albus after 24 hrs by agar dilution method. The format is functional.
In experiment [2] the test system is Staphylococcus epidermidis. The experiment in a line: Antibacterial activity against Staphylococcus epidermidis after 24 hrs by agar dilution method. The format is functional.
The next experiment has as its system Enterococcus faecalis. As to the kind of experiment: Antibacterial activity against Enterococcus faecalis after 24 hrs by agar dilution method. Format: functional.
The test system of a further experiment is Streptococcus. The experiment in a line: Antibacterial activity against gamma-streptococcus after 24 hrs by agar dilution method. Format: functional.
Another experiment concerns Escherichia coli. As to the kind of experiment: Antibacterial activity against Escherichia coli after 24 hrs by agar dilution method. Format: functional.
A further experiment deals with Shigella sonnei. The experiment in a line: Antibacterial activity against Shigella sonnei after 24 hrs by agar dilution method. Format: functional.

In brackets after ≈: the same amount, converted by molar mass.

Regarding `CCn1cc(C(=O)OC)c(=O)c2cc(F)c(Sc3ccccc3)c(Sc3ccccc3)c21`, the IC50 in the experiment with Trypanosoma cruzi turned out to be 2.4 µg/mL (≈ 5.15 µM).
On the same count and under the same terms, the same measure for `CCn1cc(C(=O)O)c(=O)c2cc(Sc3ccccc3)c(Sc3ccccc3)c(Sc3ccccc3)c21`: 39.9 µg/mL (≈ 73.7 µM); for `CCn1cc(C(=O)O)c(=O)c2cc(F)c(Sc3ccc(C)cc3)c(Sc3ccc(C)cc3)c21`: 52.7 µg/mL (≈ 110 µM).
The same measure, in the same setting: the same measure for `CCn1cc(C(N)=O)c(=O)c2cc(F)c(Oc3ccccc3)c(Oc3ccccc3)c21`: 4 µg/mL (≈ 9.56 µM).
For `CCn1cc(C(N)=O)c(=O)c2cc(F)c(Sc3ccccc3)c(Sc3ccccc3)c21`, in the experiment with Trypanosoma cruzi, the half-inhibitory concentration (IC50) is over 90 µg/mL.
Same read-out and setting: then `CCn1cc(C(=O)O)c(=O)c2cc(F)c(OCc3ccccc3)c(OCc3ccccc3)c21`, with 1.3 µg/mL (≈ 2.91 µM).
Take `O=C(O)c1cn(C2CC2)c2c(F)c(Oc3ccccc3)c(F)cc2c1=O`: the MIC in the experiment with Shigella boydii is 1.56 µg/mL (≈ 4.37 µM); with Shigella flexneri it was over 25 µg/mL; in the experiment on Proteus mirabilis it was 6.25 µg/mL (≈ 17.5 µM); against Proteus vulgaris, 6.25 µg/mL (≈ 17.5 µM); against Pseudomonas aeruginosa, 12.5 µg/mL (≈ 35 µM); in the experiment with Morganella morganii it was 3.13 µg/mL (≈ 8.76 µM). Also, the minimum inhibitory concentration (MIC) against Klebsiella pneumoniae is 1.56 µg/mL (≈ 4.37 µM); in experiment [1] it was 3.13 µg/mL (≈ 8.76 µM); in the experiment on Salmonella typhimurium it was 3.13 µg/mL (≈ 8.76 µM); against Citrobacter freundii it was 1.56 µg/mL (≈ 4.37 µM); in the experiment on Aeromonas hydrophila, 6.25 µg/mL (≈ 17.5 µM); against Serratia marcescens, 12.5 µg/mL (≈ 35 µM). In addition, the minimal inhibitory concentration (MIC) against Staphylococcus aureus is 0.39 µg/mL (≈ 1.09 µM); in the experiment on Streptococcus pneumoniae, 0.098 µg/mL (≈ 0.274 µM); in the experiment with Staphylococcus it was 1.56 µg/mL (≈ 4.37 µM); in experiment [2], 1.56 µg/mL (≈ 4.37 µM); with Enterococcus faecalis, 12.5 µg/mL (≈ 35 µM); in the experiment on Streptococcus it was over 25 µg/mL. Further, the figures for the MIC against Escherichia coli and in the experiment with Shigella sonnei were 3.13 µg/mL (≈ 8.76 µM) and 1.56 µg/mL (≈ 4.37 µM), respectively. In the experiment with Trypanosoma cruzi, this compound had a half-inhibitory concentration (IC50) of over 90 µg/mL.
Regarding `CCn1cc(C(=O)O)c(=O)c2cc(F)c(Sc3ccccc3)c(F)c21`, the minimum inhibitory concentration (MIC) in the experiment with Shigella boydii is 12.5 µg/mL (≈ 34.6 µM); with Shigella flexneri, over 25 µg/mL; with Proteus mirabilis, over 25 µg/mL; with Proteus vulgaris, over 25 µg/mL; in the experiment on Pseudomonas aeruginosa, over 25 µg/mL; in the experiment on Morganella morganii, over 25 µg/mL. For the same compound, the minimum inhibitory concentration (MIC) with Klebsiella pneumoniae is 12.5 µg/mL (≈ 34.6 µM); in [1], over 25 µg/mL; against Salmonella typhimurium, over 25 µg/mL; with Citrobacter freundii, 12.5 µg/mL (≈ 34.6 µM); in the experiment with Aeromonas hydrophila, over 25 µg/mL; with Serratia marcescens it was over 25 µg/mL. The MIC in the experiment with Staphylococcus aureus was 3.13 µg/mL (≈ 8.66 µM); against Streptococcus pneumoniae, 0.78 µg/mL (≈ 2.16 µM); against Staphylococcus, over 25 µg/mL; in experiment [2], 3.13 µg/mL (≈ 8.66 µM); against Enterococcus faecalis, over 25 µg/mL; in the experiment on Streptococcus it was over 25 µg/mL. The results for the MIC with Escherichia coli and against Shigella sonnei were over 25 µg/mL and 12.5 µg/mL (≈ 34.6 µM), respectively. In the experiment on Trypanosoma cruzi, this compound had an IC50 of 34.6 µg/mL (≈ 95.7 µM).
Take `CCn1cc(C(=O)O)c(=O)c2cc(F)c(OCc3ccccc3)c(F)c21`: the MIC is 25 µg/mL (≈ 69.6 µM) against Shigella boydii; over 25 µg/mL in the experiment with Shigella flexneri; over 25 µg/mL with Proteus mirabilis; over 25 µg/mL against Proteus vulgaris; over 25 µg/mL against Pseudomonas aeruginosa; over 25 µg/mL against Morganella morganii. Also, the MIC against Klebsiella pneumoniae is 6.25 µg/mL (≈ 17.4 µM); in experiment [1], over 25 µg/mL; against Salmonella typhimurium it was 25 µg/mL (≈ 69.6 µM); in the experiment with Citrobacter freundii it was 25 µg/mL (≈ 69.6 µM); against Aeromonas hydrophila it was over 25 µg/mL; against Serratia marcescens, over 25 µg/mL. Also, the MIC with Staphylococcus aureus is 6.25 µg/mL (≈ 17.4 µM); in the experiment with Streptococcus pneumoniae it was 1.56 µg/mL (≈ 4.34 µM); in the experiment on Staphylococcus, over 25 µg/mL; in experiment [2] it was 25 µg/mL (≈ 69.6 µM); in the experiment on Enterococcus faecalis it was over 25 µg/mL; against Streptococcus, over 25 µg/mL. For the same compound, the minimal inhibitory concentration (MIC) with Escherichia coli is over 25 µg/mL; against Shigella sonnei, 12.5 µg/mL (≈ 34.8 µM). Also, the IC50 with Trypanosoma cruzi was determined as 18.3 µg/mL (≈ 50.9 µM).
Consider `O=C(O)c1cn(C2CC2)c2c(F)c(OCc3ccccc3)c(F)cc2c1=O`, for which the minimum inhibitory concentration (MIC) with Shigella boydii is 1.56 µg/mL (≈ 4.2 µM); in the experiment with Shigella flexneri, over 25 µg/mL; in the experiment on Proteus mirabilis, 6.25 µg/mL (≈ 16.8 µM); with Proteus vulgaris it was 6.25 µg/mL (≈ 16.8 µM); against Pseudomonas aeruginosa, 6.25 µg/mL (≈ 16.8 µM); in the experiment with Morganella morganii, 6.25 µg/mL (≈ 16.8 µM). The minimal inhibitory concentration (MIC) was 0.78 µg/mL (≈ 2.1 µM) in the experiment with Klebsiella pneumoniae; 3.13 µg/mL (≈ 8.43 µM) in experiment [1]; 1.56 µg/mL (≈ 4.2 µM) against Salmonella typhimurium; 1.56 µg/mL (≈ 4.2 µM) in the experiment on Citrobacter freundii; 3.13 µg/mL (≈ 8.43 µM) against Aeromonas hydrophila; 6.25 µg/mL (≈ 16.8 µM) in the experiment with Serratia marcescens. The MIC with Staphylococcus aureus was 1.56 µg/mL (≈ 4.2 µM); in the experiment on Streptococcus pneumoniae, 1.56 µg/mL (≈ 4.2 µM); in the experiment with Staphylococcus, 6.25 µg/mL (≈ 16.8 µM); in [2], 1.56 µg/mL (≈ 4.2 µM); against Enterococcus faecalis, 12.5 µg/mL (≈ 33.7 µM); in the experiment on Streptococcus, 6.25 µg/mL (≈ 16.8 µM). Also, the minimal inhibitory concentration (MIC) against Escherichia coli and with Shigella sonnei was 1.56 µg/mL (≈ 4.2 µM) each time. In the experiment with Trypanosoma cruzi, this compound registered a half-maximal inhibitory concentration (IC50) of over 90 µg/mL.
Regarding `CCn1cc(C(=O)OC)c(=O)c2cc(F)c(Oc3ccccc3)c(Oc3ccccc3)c21`, the IC50 in the experiment with Trypanosoma cruzi was over 90 µg/mL.
Same read-out and setting: the same measure for `CCOC(=O)c1cn(CC)c2c(Oc3ccccc3)c(Oc3ccccc3)c(F)cc2c1=O`: 1.7 µg/mL (≈ 3.8 µM); for `CCOC(=O)c1cn(CC)c2c(Sc3ccccc3)c(Sc3ccccc3)c(F)cc2c1=O`: 6 µg/mL (≈ 12.5 µM); for `CCOC(=O)c1cn(CC)c2c(OCc3ccccc3)c(OCc3ccccc3)c(F)cc2c1=O`: 1.7 µg/mL (≈ 3.58 µM).
`CCn1cc(C(=O)O)c(=O)c2cc(F)c(Oc3ccc(O)cc3)c(Oc3ccc(O)cc3)c21` displayed an IC50 with Trypanosoma cruzi of 57.1 µg/mL (≈ 126 µM).
Compound `CCn1cc(C(=O)O)c(=O)c2cc(OCc3ccccc3)c(OCc3ccccc3)c(OCc3ccccc3)c21` returned an IC50 in the experiment with Trypanosoma cruzi of 2.5 µg/mL (≈ 4.67 µM).
